pIC50: −log10 of the molar value. “Also recorded” adds a separate entry of the source. Like-named read-outs stand apart in the source and are kept apart here.
How the values were obtained:
[1] = system: wild-type HIV-1 (HIV-1LAI) in MT-4 cells (permissive); assay: Antiviral activity assay: wild-type HIV-1 in permissive MT4 cells, reverse transcriptase activity in culture supernatants; format: cell-based; conditions: wild-type HIV-1, permissive MT4 cells, read-out: Antiviral activity (IC50 μM) MT4 cells
[2] = system: wild-type HIV-1 (HIV-1LAI) in MT-4 cells (permissive); conditions: 100 μM; cited from earlier work
HSP90 = assay: ViTAP (Vif inhibitor Target Affinity Purification): streptavidin affinity purification of compound-bound proteins; format: binding
[3] = system: wild-type HIV-1 (HIV-1LAI) in H9 cells (non-permissive); conditions: earlier finding on RN-18; cited from earlier work
[4] = system: wild-type HIV-1 (HIV-1LAI) in H9 cells (non-permissive); assay: microbe, parasite or virus in culture; format: cell-based; conditions: for IC50: wild-type HIV-1, non-permissive H9 cells
[5] = system: APOBEC3G, Vif and cellular Hsp90 substrates (AKT, HER2); assay: Western blot of viral and cellular proteins in 293T cells co-transfected with HIV-1 (pLAI2) and HA-tagged APOBEC3G; format: cell-based; conditions: 50 μM, 24 h
Method: FIG. 13. […] 293T cells were co-transfected with HIV-1 (pLAI2) and HA-tagged APOBEC3G vectors and cultured for 24 h in the presence (+) or absence (−) of 50 μM RN-18. Cell lysates were collected and used for Western blot analysis with antibodies against the viral and cellular proteins indicated. Levels of cellular GAPDH were used as a loading control.
Both RN-18 and 17-AAG interact with HSP90 in Cul5 mediated E3 ligase complex. […] Cell lysates were prepared and various viral and cellular protein levels were analyzed by immunoblotting (FIG. 13). Levels of cellular GAPDH were used as loading controls.

HIV-1 in CEM cells = conditions: CEM cells (non-permissive); cited from earlier work
[6] = system: A3G, Vif, p24, HSP90 in HIV-1LAI-infected H9 and MT4 cells; assay: Protein analysis (immunoblot) of HIV-1 infected H9 and MT4 cells; format: cell-based; conditions: for HIV-1 p24 levels: 72 h
Method: Non-permissive (H9) and permissive (MT4) cells were treated with 1% DMSO, IMA82, or 17-DMAG overnight and then infected with HIV-1LAI for 5 h. Cells were washed three times with PBS and cultured in medium for 72 h in the presence of the same concentrations of DMSO, IMA82, or 17-DMAG. Total cell lysates were prepared with M-PER buffer containing 0.5% Triton X-100, 150 mM NaCl, 5 mM EDTA, and protease inhibitor cocktail. Protein concentrations were determined with the DC protein assay kit (Bio-Rad). Immunoblotting was performed as described above.

[7] = system: A3G and Vif levels in HSP90 or Cul5 knockdown cells; assay: Knockdown of Hsp90 and Cul5 followed by IMA82 treatment, immunoblot
[8] = system: A3G and Vif levels in HSP90 or Cul5 knockdown cells
[9] = system: HA-tagged A3G and GFP-tagged Vif or ΔVif in 293FT cells; assay: Immunoblot of A3G and Vif levels in transfected 293FT cells; conditions: 16 h
[10] = system: polyubiquitination of A3G and Vif; assay: Ubiquitination assay in 293FT cells; format: cell-based; conditions: 293FT cells expressing HA-A3G and GFP-Vif, 10 μM, ALLN
Method: Cells were incubated with or without 10 μM of IMA82, IMD55, or IMD64 for 16 h, and then with or without 10 μM of the calpain inhibitor ALLN for 4 h. The cells were washed once with PBS and lysed. Samples of 200 μg protein were immunoprecipitated by the addition of rat anti-HA (Roche) or mouse anti-GFP (Wako) antibodies (7 μg) and 50 μl protein G DYNABEADS® (Invitrogen) and rotated at RT for 2 h. The beads were washed three times with PBS containing 0.05% Tween 20 and boiled in 5×SDS sample buffer. The denatured proteins were resolved and electroblotted onto PVDF membranes. The membranes were probed with rabbit anti-ubiquitin, rabbit anti-HA, or rabbit anti-GFP antibodies, as described above.

[11] = system: Vif-A3G-HSP90-Cul5-CBF-β E3 ligase complex; assay: Immunoprecipitation of IMA82-interacting proteins / E3 ligase complex; format: cell-based
Method: Cells were washed twice with PBS and lysed in IP lysis buffer (Thermo) or in a buffer composed of 50 mM Tris-HCl (pH 7.2), 150 mM NaCl, 1% NP-40, 10% glycerol, and protease inhibitor cocktail. Cell lysates ([…]) were incubated with 5 μl of rat anti-HA (Roche), rabbit anti-GFP (Cell Signaling), mouse anti-Hsp90 (Millipore), or rabbit anti-Cul5 (Sigma) plus 30 μl of protein A or G DYNABEADS® (Invitrogen) and rotated at RT for 2 h. The beads were washed three times with PBS containing 0.05% Tween 20. Each lysate was immunoprecipitated in triplicate and the beads were combined. Immune complexes were eluted by boiling in 5×SDS sample buffer. The proteins were separated by SDS-PAGE and analyzed by immunoblotting with antibodies to HA (A3G), GFP (Vif), Hsp90, Cul5, and CBF-β, as described above.

[12] = system: HSP90-A3G interaction (GST-Hsp90, recombinant human A3G); assay: In vitro binding of purified GST-HSP90 and recombinant A3G; conditions: purified proteins, 50 μM in 1% DMSO

COc1ccccc1NC(=O)c1ccccc1Sc1ccc([N+](=O)[O-])cc1 [RN-18, N-(2-methoxyphenyl)-2-((4-nitrophenyl)thio)benzamide]
IC50 ([1]; Human immunodeficiency virus 1, MT4, Table 1): > 50 µM
IC50 ([1]; Human immunodeficiency virus 1, MT4, Table 3): > 50 µM
activity in MT4 cell line [2]: does not show any activity; also recorded: does not inhibit viral infectivity
inhibition of IMA82 (25 μM) binding to FLAG-tagged HSP90 (HSP90; competitive binding, 0-30 μM competitor, 293FT cells): dose-dependently inhibited
pIC50 [3]: 5.22
viral replication (reverse transcriptase activity) ([4]; HSP90 knockdown H9 cells, 15 days): no effect
IC50 ([4]; Human immunodeficiency virus 1, H9, read-out: Antiviral activity (IC50 μM) H9 cells, Table 1): 6 µM
IC50 ([4]; Human immunodeficiency virus 1, H9, read-out: Antiviral activity (IC50 μM) H9 cells, Table 3): 6 µM
pIC50 ([4]; Human immunodeficiency virus 1, H9, read-out: IC50, anti-HIV-1 activity, non-permissive H9 cells): 5.22
viral replication (reverse transcriptase activity) ([4]; shNT control H9 cells, 15 days): inhibited viral replication
levels of cellular Hsp90 substrates (AKT and HER2) [5]: no effect on AKT and HER2 levels; also recorded: does not affect the levels of cellular Hsp90 substrates
A3G level ([5]; HIV-1 (pLAI2) and HA-A3G): restored A3G; also recorded: specifically restores APOBEC3G
Vif level ([5]; HIV-1 (pLAI2) and HA-A3G): enhanced degradation of Vif
pIC50 (HIV-1 in CEM cells): 5.35

COc1cc(C(=O)NCCOCCOCCOCCNC(=O)CCCCC2SCC3NC(=O)NC32)ccc1NC(=O)c1ccc(Sc2ccc([N+](=O)[O-])cc2)cc1Cl (centres unmarked) [IMA82, 2-chloro-N-(2-methoxy-4-((13-oxo-17-(2-oxohexahydro-1H-thieno[3,4-d]imidazol-4-yl)-3,6,9-trioxa-12-azaheptadecyl)carbamoyl)phenyl)-4-((4-nitrophenyl)thio)benzamide]
A3G levels ([6]; HIV-1-infected H9 cells): restored A3G levels
Vif levels ([6]; HIV-1-infected H9 cells): decreased Vif levels
HIV-1 p24 levels ([6]; HIV-1LAI-infected H9 cells): reduced
HIV-1 p24 levels ([6]; HIV-1LAI-infected MT4 cells): not MT4 cells
A3G or Vif levels ([7]; Cul5-depleted 293FT-A3G-Vif cells): no further effect
A3G levels ([7]; control siRNA (siNT) 293FT-A3G-Vif cells): rescue of A3G levels
co-purification of HSP90 (90 kDa protein) with the compound (HSP90; transfected 293FT cells, streptavidin affinity purification): HSP90 is targeted; also recorded: purified a specific 90 kDa protein; also recorded: co-purified with IMA82; also recorded: specifically interacts with HSP90
viral replication (reverse transcriptase activity in supernatants) ([4]; H9 cells, HIV-1LAI, up to 50 μM, 15 days): dose-dependently inhibited viral replication
A3G or Vif levels [8]: no effect
A3G expression ([9]; 293FT cells co-expressing HA-A3G and Vif or ΔVif): dose-dependently restored A3G expression; also recorded: enhances APOBEC3G expression
Vif expression / degradation ([9]; 293FT cells co-expressing HA-A3G and Vif): induces Cul5-mediated degradation of Vif; also recorded: enhanced Vif degradation; also recorded: reduces Vif expression
CBF-β levels ([9]; transfected 293FT cells): no effect on levels of CBF-β
HSP90 expression ([9]; transfected 293FT cells): did not significantly affect expression of HSP90 protein
A3G ubiquitination [10]: not observed; also recorded: reduced
Vif ubiquitination [10]: ubiquitinated; also recorded: increased
HSP90-A3G interaction, FLAG-HSP90 affinity purification ([11]; 293FT cells transfected with FLAG-HSP90 and HA-A3G, 16 h): inhibited interactions of HSP90 and A3G
A3G association with the immunoprecipitated E3 ligase complexes ([11]; 293FT-A3G-Vif and 293FT-A3G-ΔVif cells, 10 μM): prevents APOBEC3G association; also recorded: not present
A3G binding to GST-HSP90 [12]: block APOBEC3G association; also recorded: inhibited A3G binding to GST-HSP90
